According to PMC7895991, “Calculating metalation in cells reveals CobW acquires Co^II for vitamin B12 biosynthesis while related proteins prefer Zn^II” (Nature Communications, 2021):

Columns and labels:
[1] = biological target: T1, CobW (Rhodobacter capsulatus, UniProt D5AV10); assay: Co(II) titration UV-vis at […] nm and gel filtration/ICP-MS; type: binding; conditions: 10 mM HEPES pH 7.0, 100 mM NaCl, 400 mM KCl, anaerobic, with or without Mg(II) 2.7 mM, indirect read-out, no nucleotide constant
T1 construct: full length, untagged (natural His-rich region), initiator Met cleaved; E. coli BL21(DE3) pLysS; six cysteines
T1 sequence (D5AV10 2-348): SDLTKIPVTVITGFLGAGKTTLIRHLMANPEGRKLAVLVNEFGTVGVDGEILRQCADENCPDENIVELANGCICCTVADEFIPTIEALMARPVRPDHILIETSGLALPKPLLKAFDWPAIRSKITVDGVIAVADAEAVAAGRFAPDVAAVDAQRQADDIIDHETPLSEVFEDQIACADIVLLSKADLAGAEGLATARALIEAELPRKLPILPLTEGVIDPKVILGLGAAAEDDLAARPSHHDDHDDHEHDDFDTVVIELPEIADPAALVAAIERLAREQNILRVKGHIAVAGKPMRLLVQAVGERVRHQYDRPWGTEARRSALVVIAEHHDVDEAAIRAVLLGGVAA

[2] = biological target: T1, CobW; assay: Co(II) titration UV-vis, nucleotide-induced metal site at […] nm; type: binding; conditions: 10 mM HEPES pH 7.0, 100 mM NaCl, 400 mM KCl, anaerobic, indirect read-out, no nucleotide constant
[3] = biological target: T1, CobW; assay: GTP hydrolysis by anion-exchange chromatography, […] nm; type: biochemical; conditions: 20 uM CobW, 200 uM GTP, 2.7 mM Mg(II), 18 uM Co(II), HEPES pH 7.0, anaerobic; slow turnover

SMILES: Nc1nc2c(ncn2[C@@H]2O[C@H](COP(=O)(O)OP(=O)(O)NP(=O)(O)O)[C@@H](O)[C@H]2O)c(=O)[nH]1 [GMPPNP]
- Co(II) titration UV-vis at 339 nm and gel filtration/ICP-MS [1]: binding of guanine nucleotides to CobW promotes tight coordination of two metal ions

SMILES: Nc1nc2c(ncn2[C@@H]2O[C@H](COP(=O)(O)OP(=O)(O)O)[C@@H](O)[C@H]2O)c(=O)[nH]1 [GDP]
- Co(II) titration UV-vis, nucleotide-induced metal site at 339 nm ([2]; Mg(II) 2.7 mM): Mg^IIGDP-CobW, despite displaying identical absorbance features indicating the persistence of the cysteine-rich tetrahedral site

SMILES: Nc1nc2c(ncn2[C@@H]2O[C@H](COP(=O)(O)OP(=O)(O)OP(=O)(O)O)[C@@H](O)[C@H]2O)c(=O)[nH]1 [GTP]
- GTP hydrolysis by anion-exchange chromatography, 254 nm [3]: CobW-catalysed GTP hydrolysis is sufficiently slow such that nucleotides remain predominantly unhydrolysed
- Co(II) titration UV-vis, nucleotide-induced metal site at 339 nm ([2]; Mg(II) 2.7 mM): binding of Mg^II and guanine nucleotides preassembles one distinct Co^II site in CobW

SMILES: Nc1nc2c(ncn2[C@@H]2O[C@H](COP(=O)(O)OP(=O)(O)OP(O)(O)=S)[C@@H](O)[C@H]2O)c(=O)[nH]1 [GTPγS]
- Co(II) titration UV-vis, nucleotide-induced metal site at 339 nm ([2]; with or without Mg(II) 2.7 mM): Equivalent experiments performed with GTP and an alternate stable analogue, GTPγS, generated indistinguishable spectra
